Experimental data: patent US10449245B2 (priority 2014, dated 2019)
Where “and” joins values, the source holds several entries; their conditions need not be identical. Equal entries are not always repeated.

Tested on: HIV-1
Assay: HIV transcription as cell-associated unspliced HIV-1 RNA in CD4+ T cells (digital droplet PCR), REDUC Part A
Assay type: in vivo, human
Details: for CA US HIV RNA: individual subjects 1101, 1102, 1103, 1105, 1106, 1107 = c1-c6; for CA US HIV RNA / CA US HIV RNA, Mean: romidepsin 5 mg/m^2 i.v. days 0, 7, 14; for CA US HIV RNA, Mean: mean of subjects
Procedure: Part A of the clinical study contained three phases. […] Second, a viral reactivation phase of 3 weeks (visit 2 to visit 7) consisting of one cycle of romidepsin infusions at a dosing of 5 mg/m^2 administered intravenously over a 4 hour period. De-escalation down to 2.5 mg/m^2 was planned in case of dose-limiting toxicity was observed. Romidepsin was infused on days 0, 7, and 14. Third, a post-activation phase of ˜9 weeks (visit 8 to visit 11) to assess the effect of romidepsin on the size of latent HIV-1I reservoir.
HIV transcription was measured as copies of cell-associated unspliced HIV-1 RNA/106 CD4+ T cells using digital droplet PCR. CD4+ T-cells were isolated from PBMCs using Miltenyi Biotec negative bead separation kit (CD4 T cell isolation, #130-096-533) as described with LD separation columns, lysed (Lysis buffer from Qiagen DNA/RNA extraction kit), and stored ad −80° C. until extraction of RNA and DNA (Allprep isolation kit, Qiagen). Reverse transcription, amplification and quantitation of cell-associated unspliced HIV RNA from HIV patients was performed as follows. In summary, HIV unspliced RNA was detected on the BioRad QX100 droplet digital platform using a defined primer/probe set and related to total cell input by quantitation of the IPO8 (Importin 8) and TBP (Tata Binding Protein) gene transcription. A mixture of 11.5 μl patient extracted mRNA in nuclease-free dH, 1 μl 10 mM dNTP U1240 (Promega), 0.5 μl 3 μg/μl Random hexamers (Applied Biosystems) and 0.5 μl of 0.5 μg/μl Oligo(dT)12-18 Primer (Invitrogen) was prepared, incubated at 65° C. for 5 min, and then immediately on ice for 5 min. First-strand cDNA production was performed by adding a mixture of 4.0 μl 5× First Strand Buffer (Invitrogen), 1.0 μl 0.1M DTT (Invitrogen), 0.5 μl RNAseOUT RNAse inhibitor (40 U/μl, Invitrogen), 1.0 μl Superscript III Reverse Transcriptase (200 U/μl, Invitrogen) for a total reaction volume of 20 μl and incubating at 42° C. for 45 min, then 80° C. for 15 min in a PCR machine. The reaction was held at 4° C. or on ice until performing the downstream assay. […] To adjust for the total cellular input in each sample, relative copy numbers were normalized to two human endogenous control genes TBP PL (VIC) assay ID: Hs00183533_m1 and IPO8 (FAM) assay ID: Hs00427620_m1 (TaqMan gene expression assay, LifeTechnologies, Denmark). All HIV RT samples were run in six replicates while the reference genes were assayed in duplicate. The PCR reaction mixture was loaded into the BioRad QX-100 emulsification device fractionating each sample into 20,000 nanoliter-sized droplets following the manufacturer's instructions. PCR cycling conditions were as follows: 95° C. for 10 min, followed by 40 cycles of a 30 second denaturation at 95° C. followed by a 59° C. extension for 60 seconds and a final 10 minutes at 98° C. After cycling droplets were subsequently read automatically by the QX100 droplet reader (BioRad) and the data was analyzed with the QuantaSoft™ analysis software (BioRad).

[1] = visit 1 (day −21, pre-treatment)
[2] = visit 2A (day 0, pre-treatment)

**Q.** For C/C=C1\NC(=O)[C@H]2CSSCC/C=C/[C@H](CC(=O)N[C@H](C(C)C)C(=O)N2)OC(=O)[C@H](C(C)C)NC1=O [romidepsin, (1S,4S,7Z,10S,16E,21R)-7-ethylidene-4,21-bis(1-methylethyl)-2-oxa-12,13-dithia-5,8,20,23-tetraazabicyclo[8.7.6]tricos-16-ene-3,6,9,19,22-pentone], which HIV reactivation (5 mg/m^2 romidepsin, patients on cART) is on record?
**A.** The HIV reactivation was “successfully able to reactivate HIV in 6 patients”.

**Q.** And the “HIV-1 transcription (cell-associated un-spliced HIV-1 RNA), fold range increase from baseline” value (after third infusion, p=0.03, Wilcoxon)?
**A.** The value was 2.4-5.0 fold.

**Q.** What about the “cell-associated un-spliced HIV RNA, change” value (as a result of romidepsin infusion) of the same compound?
**A.** The value was “significantly increased”.

**Q.** What about the “CA US HIV RNA” value [1] of the same compound?
**A.** Its value is 5.4 HIV RNA copies/10^6 CD4+ T cel and 19.7 HIV RNA copies/10^6 CD4+ T cel and 9.7 HIV RNA copies/10^6 CD4+ T cel and 4.8 HIV RNA copies/10^6 CD4+ T cel and 15.9 HIV RNA copies/10^6 CD4+ T cel and 8.7 HIV RNA copies/10^6 CD4+ T cel.

**Q.** What about the “CA US HIV RNA, Mean” value [1] of the same compound?
**A.** Its value is 10.7 HIV RNA copies/10^6 CD4+ T cel.

**Q.** And the “CA US HIV RNA” value [2]?
**A.** Its value is 13.3 HIV RNA copies/10^6 CD4+ T cel and 16.8 HIV RNA copies/10^6 CD4+ T cel and 7.4 HIV RNA copies/10^6 CD4+ T cel and 14.5 HIV RNA copies/10^6 CD4+ T cel and 4.5 HIV RNA copies/10^6 CD4+ T cel.

**Q.** And the “CA US HIV RNA, Mean” value [2]?
**A.** Its value is 11.3 HIV RNA copies/10^6 CD4+ T cel.

**Q.** And the “CA US HIV RNA” value (visit 2B (day 0 + 4 h))?
**A.** The value was 23.0 HIV RNA copies/10^6 CD4+ T cel and 21.7 HIV RNA copies/10^6 CD4+ T cel and 15.7 HIV RNA copies/10^6 CD4+ T cel and 6.2 HIV RNA copies/10^6 CD4+ T cel and 18.7 HIV RNA copies/10^6 CD4+ T cel and 7.6 HIV RNA copies/10^6 CD4+ T cel.

**Q.** What about the “CA US HIV RNA, Mean” value (visit 2B (day 0 + 4 h)) of the same compound?
**A.** Its value is 15.5 HIV RNA copies/10^6 CD4+ T cel.

**Q.** And the “CA US HIV RNA” value (visit 3 (day 1))?
**A.** Its value is 16.7 HIV RNA copies/10^6 CD4+ T cel and 33.8 HIV RNA copies/10^6 CD4+ T cel and 9.5 HIV RNA copies/10^6 CD4+ T cel and 7.3 HIV RNA copies/10^6 CD4+ T cel and 29.4 HIV RNA copies/10^6 CD4+ T cel and 10.3 HIV RNA copies/10^6 CD4+ T cel.

**Q.** And the “CA US HIV RNA, Mean” value (visit 3 (day 1))?
**A.** Its value is 17.8 HIV RNA copies/10^6 CD4+ T cel.

**Q.** And the “CA US HIV RNA” value (visit 4 (day 3))?
**A.** Its value is 26.4 HIV RNA copies/10^6 CD4+ T cel and 36.2 HIV RNA copies/10^6 CD4+ T cel and 7.5 HIV RNA copies/10^6 CD4+ T cel and 6.8 HIV RNA copies/10^6 CD4+ T cel and 12.1 HIV RNA copies/10^6 CD4+ T cel and 6.6 HIV RNA copies/10^6 CD4+ T cel.

**Q.** And the “CA US HIV RNA, Mean” value (visit 4 (day 3))?
**A.** Its value is 15.9 HIV RNA copies/10^6 CD4+ T cel.

**Q.** And the “CA US HIV RNA” value (visit 5A (day 7))?
**A.** Its value is 12.5 HIV RNA copies/10^6 CD4+ T cel and 13.7 HIV RNA copies/10^6 CD4+ T cel and 11.3 HIV RNA copies/10^6 CD4+ T cel and 7.6 HIV RNA copies/10^6 CD4+ T cel and 18.9 HIV RNA copies/10^6 CD4+ T cel and 6.6 HIV RNA copies/10^6 CD4+ T cel.

**Q.** What about the “CA US HIV RNA, Mean” value (visit 5A (day 7)) of the same compound?
**A.** Its value is 11.8 HIV RNA copies/10^6 CD4+ T cel.

**Q.** What about the “CA US HIV RNA” value (visit 5B (day 7 + 4 h)) of the same compound?
**A.** Its value is 33.7 HIV RNA copies/10^6 CD4+ T cel and 43.3 HIV RNA copies/10^6 CD4+ T cel and 24.8 HIV RNA copies/10^6 CD4+ T cel and 24.0 HIV RNA copies/10^6 CD4+ T cel and 45.2 HIV RNA copies/10^6 CD4+ T cel.

**Q.** What about the “CA US HIV RNA, Mean” value (visit 5B (day 7 + 4 h)) of the same compound?
**A.** The value was 34.2 HIV RNA copies/10^6 CD4+ T cel.

**Q.** And the “CA US HIV RNA” value (visit 6 (day 10))?
**A.** The value was 21.3 HIV RNA copies/10^6 CD4+ T cel and 29.0 HIV RNA copies/10^6 CD4+ T cel and 10.4 HIV RNA copies/10^6 CD4+ T cel and 9.1 HIV RNA copies/10^6 CD4+ T cel and 14.4 HIV RNA copies/10^6 CD4+ T cel and 7.9 HIV RNA copies/10^6 CD4+ T cel.

**Q.** What about the “CA US HIV RNA, Mean” value (visit 6 (day 10)) of the same compound?
**A.** The value was 15.3 HIV RNA copies/10^6 CD4+ T cel.

**Q.** And the “CA US HIV RNA” value (visit 7A (day 14))?
**A.** Its value is 13.3 HIV RNA copies/10^6 CD4+ T cel and 24.2 HIV RNA copies/10^6 CD4+ T cel and 9.9 HIV RNA copies/10^6 CD4+ T cel and 6.0 HIV RNA copies/10^6 CD4+ T cel and 18.1 HIV RNA copies/10^6 CD4+ T cel.

**Q.** And the “CA US HIV RNA, Mean” value (visit 7A (day 14))?
**A.** Its value is 14.3 HIV RNA copies/10^6 CD4+ T cel.

**Q.** And the “CA US HIV RNA” value (visit 7B (day 14 + 4 h))?
**A.** Its value is 36.5 HIV RNA copies/10^6 CD4+ T cel and 51.9 HIV RNA copies/10^6 CD4+ T cel and 21.0 HIV RNA copies/10^6 CD4+ T cel and 76.0 HIV RNA copies/10^6 CD4+ T cel and 20.5 HIV RNA copies/10^6 CD4+ T cel.

**Q.** What about the “CA US HIV RNA, Mean” value (visit 7B (day 14 + 4 h)) of the same compound?
**A.** The value was 41.2 HIV RNA copies/10^6 CD4+ T cel.

**Q.** What about the “CA US HIV RNA” value (visit 8 (day 17)) of the same compound?
**A.** Its value is 17.4 HIV RNA copies/10^6 CD4+ T cel and 17.8 HIV RNA copies/10^6 CD4+ T cel and 4.2 HIV RNA copies/10^6 CD4+ T cel and 14.9 HIV RNA copies/10^6 CD4+ T cel and 8.9 HIV RNA copies/10^6 CD4+ T cel.

**Q.** And the “CA US HIV RNA, Mean” value (visit 8 (day 17))?
**A.** The value was 12.7 HIV RNA copies/10^6 CD4+ T cel.

**Q.** And the “CA US HIV RNA” value (visit 9 (day 21))?
**A.** The value was 16.4 HIV RNA copies/10^6 CD4+ T cel and 19.0 HIV RNA copies/10^6 CD4+ T cel and 4.6 HIV RNA copies/10^6 CD4+ T cel and 5.2 HIV RNA copies/10^6 CD4+ T cel and 11.1 HIV RNA copies/10^6 CD4+ T cel.

**Q.** What about the “CA US HIV RNA, Mean” value (visit 9 (day 21)) of the same compound?
**A.** Its value is 11.3 HIV RNA copies/10^6 CD4+ T cel.

**Q.** And the “CA US HIV RNA” value (visit 10 (day 56))?
**A.** Its value is 17.9 HIV RNA copies/10^6 CD4+ T cel and 25.0 HIV RNA copies/10^6 CD4+ T cel and 7.6 HIV RNA copies/10^6 CD4+ T cel and 6.2 HIV RNA copies/10^6 CD4+ T cel and 16.8 HIV RNA copies/10^6 CD4+ T cel and 9.3 HIV RNA copies/10^6 CD4+ T cel.
